Measurements: patent US20160009693A1, “HERBICIDAL COMPOUNDS” (SYNGENTA LIMITED, priority 2013, published 2016)

How the values were obtained:
Format in all cases: in vivo
Conditions in all cases: applied at 1000 g/h, evaluated after 13 days
[1] = system: Ipomoea hederacea (IPOHE); experiment: Herbicidal glasshouse test, post-emergence, IPOHE
[2] = system: Solanum nigrum (SOLNI); experiment: Herbicidal glasshouse test, post-emergence, SOLNI
[3] = system: Echinochloa crus-galli (ECHCG); experiment: Herbicidal glasshouse test, post-emergence, ECHCG
In short: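 Echinochloa crus-galli (ECHCG) seeds were sown in standard soil in pots and grown for 8 days in a glasshouse at 24/16° C. day/night, 14 hours light and 65% humidity. The young plants were then sprayed post-emergence with the active ingredient in acetone / water (50:50) containing 0.5% Tween 20. Damage was scored after 13 days.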

[4] = system: Ipomoea hederacea (IPOHE); experiment: Herbicidal glasshouse test, pre-emergence, IPOHE
[5] = system: Solanum nigrum (SOLNI); experiment: Herbicidal glasshouse test, pre-emergence, SOLNI
In short: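 Seeds of Solanum nigrum were sown in pots of standard soil and kept one day in a glasshouse at 24/16° C. day/night, 14 hours light and 65% humidity. For the pre-emergence treatment they were then sprayed with an aqueous solution of the active ingredient formulated in acetone/water (50:50) containing 0.5% Tween 20. Plant damage was rated after 13 days.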

[6] = system: Echinochloa crus-galli (ECHCG); experiment: Herbicidal glasshouse test, pre-emergence, ECHCG
In short: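 Echinochloa crus-galli seeds were sown in standard soil in pots and grown for one day in a glasshouse at 24/16° C. day/night, 14 hours light and 65% humidity. Pre-emergence spraying used an aqueous solution of the active ingredient in acetone/water (50:50) with 0.5% Tween 20. Damage was scored after 13 days on a five point scale.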

[7] = system: Amaranthus retoflexus (AMARE); experiment: Herbicidal glasshouse test, pre-emergence, AMARE
In short: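 Amaranthus retoflexus seeds were sown in pots of standard soil and kept one day in a glasshouse at 24/16° C. (day/night), 14 hours light and 65% humidity. They were then sprayed pre-emergence with the active ingredient in acetone/water (50:50) containing 0.5% Tween 20. Plants grew under the same conditions, watered twice daily, and percentage damage was scored after 13 days.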

[8] = system: Alopecurus myosuroides (ALOMY); experiment: Herbicidal glasshouse test, pre-emergence, ALOMY
[9] = system: Setaria faberi (SETFA); experiment: Herbicidal glasshouse test, post-emergence, SETFA
In short: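 Setaria faberi seeds were sown in standard soil in pots and grown for 8 days in a glasshouse at 24/16° C. day/night, 14 hours light and 65% humidity. The seedlings were then sprayed post-emergence with the active ingredient in acetone/water (50:50) containing 0.5% Tween 20. Afterwards they were kept under the same conditions, watered twice daily, and scored for percentage damage on a five point scale.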

[10] = system: Setaria faberi (SETFA); experiment: Herbicidal glasshouse test, pre-emergence, SETFA
[11] = system: Alopecurus myosuroides (ALOMY); experiment: Herbicidal glasshouse test, post-emergence, ALOMY
[12] = system: Amaranthus retoflexus (AMARE); experiment: Herbicidal glasshouse test, post-emergence, AMARE
In short: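 Amaranthus retoflexus (AMARE) seeds were sown in pots of standard soil and grown in a glasshouse at 24/16° C. day/night, 14 hours light and 65% humidity for 8 days. The plants were then sprayed post-emergence with an aqueous solution of the active ingredient in acetone/water (50:50) with 0.5% Tween 20. Damage was scored after 13 days.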

CCCn1nnnc1NC(=O)c1cn(C)c(=O)n(-c2cccc(F)c2)c1=O [Compound 4.005]
POST Application IPOHE, percentage damage (five point scale) [1]: 5 (5=80-100%)
POST Application SOLNI, percentage damage (five point scale) [2]: 5 (5=80-100%)
POST Application ECHCG, percentage damage (five point scale) [3]: 2 (2=20-39%)
PRE Application IPOHE, percentage damage (five point scale) [4]: 4 (4=60-79%)
PRE Application SOLNI, percentage damage (five point scale) [5]: 5 (5=80-100%)
PRE Application ECHCG, percentage damage (five point scale) [6]: 2 (2=20-39%)
PRE Application AMARE, percentage damage (five point scale) [7]: 4 (4=60-79%)
PRE Application ALOMY, percentage damage (five point scale) [8]: 1 (1=0-19%)
POST Application SETFA, percentage damage (five point scale) [9]: 1 (1=0-19%)
PRE Application SETFA, percentage damage (five point scale) [10]: 1 (1=0-19%)
POST Application ALOMY, percentage damage (five point scale) [11]: 3 (3=40-59%)
POST Application AMARE, percentage damage (five point scale) [12]: 5 (5=80-100%)

Cn1ncnc1OC(=O)c1cn(C)c(=O)n(-c2cccc(F)c2)c1=O [Compound 2.001]
POST Application IPOHE, percentage damage (five point scale) [1]: 1 (1=0-19%)
POST Application SOLNI, percentage damage (five point scale) [2]: 4 (4=60-79%)
POST Application ECHCG, percentage damage (five point scale) [3]: 1 (1=0-19%)
PRE Application IPOHE, percentage damage (five point scale) [4]: 1 (1=0-19%)
PRE Application SOLNI, percentage damage (five point scale) [5]: 1 (1=0-19%)
PRE Application ECHCG, percentage damage (five point scale) [6]: 1 (1=0-19%)
PRE Application AMARE, percentage damage (five point scale) [7]: 1 (1=0-19%)
PRE Application ALOMY, percentage damage (five point scale) [8]: 1 (1=0-19%)
POST Application SETFA, percentage damage (five point scale) [9]: 1 (1=0-19%)
PRE Application SETFA, percentage damage (five point scale) [10]: 1 (1=0-19%)
POST Application ALOMY, percentage damage (five point scale) [11]: 1 (1=0-19%)
POST Application AMARE, percentage damage (five point scale) [12]: 4 (4=60-79%)

Cn1nnnc1NC(=O)c1nn(C)c(=O)n(-c2ccc(Br)cc2)c1=O [Compound 1.027]
POST Application IPOHE, percentage damage (five point scale) [1]: 5 (5=80-100%)
POST Application SOLNI, percentage damage (five point scale) [2]: 5 (5=80-100%)
POST Application ECHCG, percentage damage (five point scale) [3]: 5 (5=80-100%)
PRE Application IPOHE, percentage damage (five point scale) [4]: 5 (5=80-100%)
PRE Application SOLNI, percentage damage (five point scale) [5]: 5 (5=80-100%)
PRE Application ECHCG, percentage damage (five point scale) [6]: 5 (5=80-100%)
PRE Application AMARE, percentage damage (five point scale) [7]: 5 (5=80-100%)
PRE Application ALOMY, percentage damage (five point scale) [8]: 5 (5=80-100%)
POST Application SETFA, percentage damage (five point scale) [9]: 5 (5=80-100%)
PRE Application SETFA, percentage damage (five point scale) [10]: 5 (5=80-100%)
POST Application ALOMY, percentage damage (five point scale) [11]: 5 (5=80-100%)
POST Application AMARE, percentage damage (five point scale) [12]: 5 (5=80-100%)

Cc1cc(Cn2c(=O)c(C(=O)Nc3nnnn3C)nn(C)c2=O)cc(C)c1F [Compound 1.078]
POST Application IPOHE, percentage damage (five point scale) [1]: 5 (5=80-100%)
POST Application SOLNI, percentage damage (five point scale) [2]: 5 (5=80-100%)
POST Application ECHCG, percentage damage (five point scale) [3]: 4 (4=60-79%)
PRE Application IPOHE, percentage damage (five point scale) [4]: 2 (2=20-39%)
PRE Application SOLNI, percentage damage (five point scale) [5]: 5 (5=80-100%)
PRE Application ECHCG, percentage damage (five point scale) [6]: 2 (2=20-39%)
PRE Application AMARE, percentage damage (five point scale) [7]: 5 (5=80-100%)
PRE Application ALOMY, percentage damage (five point scale) [8]: 2 (2=20-39%)
POST Application SETFA, percentage damage (five point scale) [9]: 2 (2=20-39%)
PRE Application SETFA, percentage damage (five point scale) [10]: 1 (1=0-19%)
POST Application ALOMY, percentage damage (five point scale) [11]: 2 (2=20-39%)
POST Application AMARE, percentage damage (five point scale) [12]: 5 (5=80-100%)

Cn1nnnc1NC(=O)c1nn(C)c(=O)n(-c2ccc(F)cc2)c1=O [Compound 1.015]
POST Application IPOHE, percentage damage (five point scale) [1]: 5 (5=80-100%)
POST Application SOLNI, percentage damage (five point scale) [2]: 5 (5=80-100%)
POST Application ECHCG, percentage damage (five point scale) [3]: 5 (5=80-100%)
PRE Application IPOHE, percentage damage (five point scale) [4]: 5 (5=80-100%)
PRE Application SOLNI, percentage damage (five point scale) [5]: 5 (5=80-100%)
PRE Application ECHCG, percentage damage (five point scale) [6]: 5 (5=80-100%)
PRE Application AMARE, percentage damage (five point scale) [7]: 5 (5=80-100%)
PRE Application ALOMY, percentage damage (five point scale) [8]: 5 (5=80-100%)
POST Application SETFA, percentage damage (five point scale) [9]: 5 (5=80-100%)
PRE Application SETFA, percentage damage (five point scale) [10]: 5 (5=80-100%)
POST Application ALOMY, percentage damage (five point scale) [11]: 5 (5=80-100%)
POST Application AMARE, percentage damage (five point scale) [12]: 5 (5=80-100%)

Cn1nnnc1NC(=O)c1nn(C)c(=O)n(-c2ccc(C(C)(C)C)cc2)c1=O [Compound 1.040]
POST Application IPOHE, percentage damage (five point scale) [1]: 4 (4=60-79%)
POST Application SOLNI, percentage damage (five point scale) [2]: 5 (5=80-100%)
POST Application ECHCG, percentage damage (five point scale) [3]: 5 (5=80-100%)
PRE Application IPOHE, percentage damage (five point scale) [4]: 3 (3=40-59%)
PRE Application SOLNI, percentage damage (five point scale) [5]: 5 (5=80-100%)
PRE Application ECHCG, percentage damage (five point scale) [6]: 5 (5=80-100%)
PRE Application AMARE, percentage damage (five point scale) [7]: 5 (5=80-100%)
PRE Application ALOMY, percentage damage (five point scale) [8]: 5 (5=80-100%)
POST Application SETFA, percentage damage (five point scale) [9]: 5 (5=80-100%)
PRE Application SETFA, percentage damage (five point scale) [10]: 5 (5=80-100%)
POST Application ALOMY, percentage damage (five point scale) [11]: 4 (4=60-79%)
POST Application AMARE, percentage damage (five point scale) [12]: 5 (5=80-100%)

Cn1nnnc1NC(=O)c1nn(C)c(=O)n(-c2ccc([N+](=O)[O-])cc2)c1=O [Compound 1.031]
POST Application IPOHE, percentage damage (five point scale) [1]: 2 (2=20-39%)
POST Application SOLNI, percentage damage (five point scale) [2]: 5 (5=80-100%)
POST Application ECHCG, percentage damage (five point scale) [3]: 5 (5=80-100%)
PRE Application IPOHE, percentage damage (five point scale) [4]: 4 (4=60-79%)
PRE Application SOLNI, percentage damage (five point scale) [5]: 5 (5=80-100%)
PRE Application ECHCG, percentage damage (five point scale) [6]: 4 (4=60-79%)
PRE Application AMARE, percentage damage (five point scale) [7]: 5 (5=80-100%)
PRE Application ALOMY, percentage damage (five point scale) [8]: 3 (3=40-59%)
POST Application SETFA, percentage damage (five point scale) [9]: 5 (5=80-100%)
PRE Application SETFA, percentage damage (five point scale) [10]: 4 (4=60-79%)
POST Application ALOMY, percentage damage (five point scale) [11]: 4 (4=60-79%)
POST Application AMARE, percentage damage (five point scale) [12]: 5 (5=80-100%)

Cn1nnnc1NC(=O)c1nn(C)c(=O)n(-c2cc(C(F)(F)F)cc(C(F)(F)F)c2)c1=O [Compound 1.032]
POST Application IPOHE, percentage damage (five point scale) [1]: 5 (5=80-100%)
POST Application SOLNI, percentage damage (five point scale) [2]: 5 (5=80-100%)
POST Application ECHCG, percentage damage (five point scale) [3]: 5 (5=80-100%)
PRE Application IPOHE, percentage damage (five point scale) [4]: 4 (4=60-79%)
PRE Application SOLNI, percentage damage (five point scale) [5]: 5 (5=80-100%)
PRE Application ECHCG, percentage damage (five point scale) [6]: 5 (5=80-100%)
PRE Application AMARE, percentage damage (five point scale) [7]: 5 (5=80-100%)
PRE Application ALOMY, percentage damage (five point scale) [8]: 5 (5=80-100%)
POST Application SETFA, percentage damage (five point scale) [9]: 4 (4=60-79%)
PRE Application SETFA, percentage damage (five point scale) [10]: 5 (5=80-100%)
POST Application ALOMY, percentage damage (five point scale) [11]: 5 (5=80-100%)
POST Application AMARE, percentage damage (five point scale) [12]: 5 (5=80-100%)

Cn1nnnc1NC(=O)c1nn(C)c(=O)n(Cc2ccc(C#N)cc2)c1=O [Compound 1.050]
POST Application IPOHE, percentage damage (five point scale) [1]: 5 (5=80-100%)
POST Application SOLNI, percentage damage (five point scale) [2]: 5 (5=80-100%)
POST Application ECHCG, percentage damage (five point scale) [3]: 5 (5=80-100%)
PRE Application IPOHE, percentage damage (five point scale) [4]: 5 (5=80-100%)
PRE Application SOLNI, percentage damage (five point scale) [5]: 5 (5=80-100%)
PRE Application ECHCG, percentage damage (five point scale) [6]: 5 (5=80-100%)
PRE Application AMARE, percentage damage (five point scale) [7]: 5 (5=80-100%)
PRE Application ALOMY, percentage damage (five point scale) [8]: 5 (5=80-100%)
POST Application SETFA, percentage damage (five point scale) [9]: 1 (1=0-19%)
PRE Application SETFA, percentage damage (five point scale) [10]: 2 (2=20-39%)
POST Application ALOMY, percentage damage (five point scale) [11]: 5 (5=80-100%)
POST Application AMARE, percentage damage (five point scale) [12]: 5 (5=80-100%)
